Assay results from patent US20110002843A1, “METHOD OF DETECTING MYOCARDIAL DYSFUNCTION IN PATIENTS HAVING A HISTORY OF ASTHMA OR BRONCHOSPASM” (priority 2005, published 2011).
Where two headings read alike, the source gives them in different places.

Columns and labels:
[1] = Single-dose pharmacokinetics, safety and tolerability of 10-minute intravenous infusion in healthy volunteers; type: in vivo, human; conditions: for Cmax / Tmax / AUC(0-inf) / AUC(0-t) / clearance / half-life / Vd: human, plasma; for Cmax: read-out: Cmax, mean (SD); for AUC(0-inf): read-out: AUC0-∞, mean (SD) (converted); for AUC(0-t): read-out: AUClast, mean (SD) (converted); for Vd: read-out: Vz, mean (SD)
Experimental: Subjects: This study was conducted at the New Orleans Center for Clinical Research, New Orleans, La., in accordance with US Good Clinical Practice guidelines. Subjects were required to be in generally good health as determined by physical examination and laboratory testing, as well as assessment of vital signs. Exclusion criteria included testing positive on drug screening (drugs of abuse); ingesting caffeine, alcohol, or medication within 24 hours of study entry; or receiving an investigational drug with 30 days of study entry. Women of childbearing potential and men whose female partners were not using an acceptable contraceptive method were excluded. Other exclusion criteria included subjects with known postural hypotension, resting supine systolic blood pressure of 90 mmHg or lower, diastolic blood pressure of 60 mmHg or lower and heart rate of 90 beats/min or greater; history of human immunodeficiency virus infection; positive test result for hepatitis B surface antigen or hepatitis C antibody; and any clinically relevant condition that could potentially confound the analysis or present a safety risk.
Study Methods: The study was designed as a single-center, open-label, nonrandomized, intravenous dose-escalation study in 4 cohorts (n=6 each) of healthy volunteers. The protocol was approved by the institutional review board; all subjects gave written informed consent. Subjects from each cohort were to receive 3 rising doses of binodenoson administered via intravenous infusion over a period of 10 minutes, at a rate not to exceed 6 μg/kg/min. Although the successive doses of binodenoson were administered on the same study day, the washout period between doses was at least 2 hours. Subjects in cohort 1 received consecutive binodenoson doses of 0.1, 0.2 and 0.4 μg/kg; cohort 2 received 0.6, 1 and 2 μg/kg; cohort 3 received 2, 3 and 4 μg/kg; and cohort 4 received 4, 5 and 6 μg/kg.
Serial vital sign monitoring of heart rate, supine systolic blood pressure and diastolic blood pressure was done at screening and during each dosing phase within 10 minutes before infusion, at 2, 4, 6, 8 and 10 minutes during infusion and at 2, 5, 7.5, 10, 15, 20, 30, 45, 60, 90 and 120 minutes after infusion. A 12-lead electrocardiogram (ECG) was obtained at screening and the end of the study. The ECG was monitored via telemetry during the treatment phase, including during the infusions. Monitoring was initiated within 1 hour before dosing and continued until 24 hours after completion of the last dose.
A total of 40 to 42 blood samples were collected during the treatment phase for quantitation of binodenoson in plasma. Before dosing, a polyethylene catheter was inserted into a vein of the forearm contralateral to the infusion site. Blood samples (5 mL) were drawn into prechilled Vacutainer tubes (BD, Franklin Lakes, N.J.) just before infusion (−1 minute), at the midpoint (5 minutes) and end (10 minutes) of infusion and at 2, 5, 7.5, 10, 15, 20, 30, 45, 60, 90 and 120 minutes after the end of infusion. Plasma was separated from cellular material by centrifugation under refrigeration (4° C.) at 4000 rpm for 10 minutes and then stored in cryotubes at −80° C. until analyzed. The total amount of blood taken during the intensive sampling period was approximately 200 mL. Plasma concentrations of binodenoson were determined by a validated high-performance liquid chromatography-mass spectrometry (LC/MS/MS) assay at Phoenix International, Inc. (Montreal, Quebec, Canada).
Pharmacokinetic parameters were derived for each subject's plasma binodenoson concentration-time profile for each binodenoson infusion by use of noncompartmental methods with the statistical software program SAS (SAS Institute, Cary, N.C.). The peak concentration (Cmax) and corresponding time to (Cmax) (tmax) were derived by observation. […]

cytochrome P450 enzymes = experiment: In vitro inhibition of cytochrome P450 enzymes; type: in vitro ADME
Adenosine Receptor A2B = Adenosine Receptor A2B (Cavia porcellus, UniProt Z9IYO2O0X7); experiment: G.P. Aortic Ring (Relaxation) bioassay; parameters: species or system guinea pig
Description: It is further preferable to use compounds that are selective for the A2A receptor over the A2B receptor. Additional methods are known in the art for performing bioassays and are useful to identify selectivity to the A2B receptor as well as confirming selectivity and potency in vivo. Such bioassays are typically performed prior to animal and human trials.

[2] = 0.4 ug/kg, 0.4 μg/kg iv over 10 minutes
[3] = 0.6 ug/kg, 0.6 μg/kg iv over 10 minutes
[4] = 1 ug/kg, 1 μg/kg iv over 10 minutes
[5] = 2 ug/kg, 2 μg/kg iv over 10 minutes
[6] = 3 ug/kg, 3 μg/kg iv over 10 minutes
[7] = 4 ug/kg, 4 μg/kg iv over 10 minutes
[8] = 6 ug/kg, 6 μg/kg iv over 10 minutes
[9] = 8 ug/kg, 8 μg/kg iv over 10 minutes

Adenosine Receptor A2B, sequence (Z9IYO2O0X7 1-332): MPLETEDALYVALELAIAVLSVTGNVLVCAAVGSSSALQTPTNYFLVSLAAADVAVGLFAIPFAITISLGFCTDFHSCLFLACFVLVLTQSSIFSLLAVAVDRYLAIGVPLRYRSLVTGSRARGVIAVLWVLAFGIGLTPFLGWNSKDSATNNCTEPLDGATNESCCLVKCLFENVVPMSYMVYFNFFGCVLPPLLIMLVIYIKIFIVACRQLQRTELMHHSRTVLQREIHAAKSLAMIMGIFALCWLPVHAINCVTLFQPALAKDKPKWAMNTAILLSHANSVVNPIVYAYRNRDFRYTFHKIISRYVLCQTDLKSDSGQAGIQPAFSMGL

Nc1nc(N/N=C/C2CCCCC2)nc2c1ncn2[C@@H]1O[C@H](CO)[C@@H](O)[C@H]1O (stereo in doubt) [Binodenoson, 2-{2-[(Cyclohexyl)methylene]hydrazino}adenosine]
maximum increase in heart rate ([1]; 1 μg/kg dose): 29 beats/min | mean maximal increase in systolic blood pressure from baseline ([1]; 1 μg/kg dose): 8.8 mmHg | maximum increase in heart rate ([1]; 6 μg/kg dose): 66.3 beats/min | mean maximal increase in systolic blood pressure from baseline ([1]; 6 μg/kg dose): 27.9 mmHg | volunteers reporting at least 1 AE ([1]; 21 of 24 volunteers): 83% | AEs judged related to administration of binodenoson ([1]; all doses): 99% | AEs of mild severity ([1]; all doses): 82% | AEs of moderate severity ([1]; all doses): 17% | AEs that began during drug infusions and resolved within 30 minutes of onset ([1]; all doses): 75% | ECG changes ([1]; all doses): no clinically significant ECG changes | serious AEs ([1]; all doses): no serious AEs | frequency of dizziness ([1]; doses of 1 μg/kg or lower): 0% | frequency of headache ([1]; doses of 1 μg/kg or lower): 7% | frequency of nausea/vomiting ([1]; doses of 1 μg/kg or lower): 0% | frequency of paresthesia ([1]; doses of 1 μg/kg or lower): 3% | frequency of vasodilation ([1]; doses of 1 μg/kg or lower): 14% | frequency of dizziness ([1]; doses of 2 μg/kg or greater): 24% | frequency of headache ([1]; doses of 2 μg/kg or greater): 60% | frequency of nausea/vomiting ([1]; doses of 2 μg/kg or greater): 49% | frequency of paresthesia ([1]; doses of 2 μg/kg or greater): 19% | frequency of vasodilation ([1]; doses of 2 μg/kg or greater): 54% | tolerability ([1]; doses ranging from 0.4 μg/kg to 6 μg/kg): well tolerated | Cmax [1, 2]: 0.9 ng/mL | Cmax [1, 3]: 1.1 ng/mL | Cmax [1, 4]: 2.1 ng/mL | Cmax [1, 5]: 3.9 ng/mL | Cmax [1, 6]: 6.2 ng/mL | Cmax [1, 7]: 8.7 ng/mL | Cmax [1, 8]: 12.5 ng/mL | Cmax [1, 9]: 12.1 ng/mL | Tmax [1, 2]: 10 min | AUC(0-inf) [1, 2]: 0.207 ng·h/mL | AUC(0-t) [1, 2]: 0.15 ng·h/mL | clearance ([1]; 0.4 ug/kg, 0.4 μg/kg iv over 10 minutes, read-out: CL, mean (SD)): 33.4 mL/min/kg | half-life ([1]; 0.4 ug/kg, 0.4 μg/kg iv over 10 minutes, read-out: T1/2, mean (SD)): 8.8 min | Vd [1, 2]: 0.39 L/kg | Tmax [1, 3]: 7.5 min | AUC(0-inf) [1, 3]: 0.353 ng·h/mL | AUC(0-t) [1, 3]: 0.208 ng·h/mL | clearance ([1]; 0.6 ug/kg, 0.6 μg/kg iv over 10 minutes, read-out: CL, mean (SD)): 28.8 mL/min/kg | half-life ([1]; 0.6 ug/kg, 0.6 μg/kg iv over 10 minutes, read-out: T1/2, mean (SD)): 11.7 min | Vd [1, 3]: 0.46 L/kg | Tmax [1, 4]: 10 min | AUC(0-inf) [1, 4]: 0.465 ng·h/mL | AUC(0-t) [1, 4]: 0.415 ng·h/mL | clearance ([1]; 1 ug/kg, 1 μg/kg iv over 10 minutes, read-out: CL, mean (SD)): 38.3 mL/min/kg | half-life ([1]; 1 ug/kg, 1 μg/kg iv over 10 minutes, read-out: T1/2, mean (SD)): 7.4 min | Vd [1, 4]: 0.4 L/kg | Tmax [1, 5]: 10 min | AUC(0-inf) [1, 5]: 0.928 ng·h/mL | AUC(0-t) [1, 5]: 0.855 ng·h/mL | clearance ([1]; 2 ug/kg, 2 μg/kg iv over 10 minutes, read-out: CL, mean (SD)): 33 mL/min/kg | half-life ([1]; 2 ug/kg, 2 μg/kg iv over 10 minutes, read-out: T1/2, mean (SD)): 10 min | Vd [1, 5]: 0.48 L/kg | Tmax [1, 6]: 9.5 min | AUC(0-inf) [1, 6]: 1.42 ng·h/mL | AUC(0-t) [1, 6]: 1.31 ng·h/mL | clearance ([1]; 3 ug/kg, 3 μg/kg iv over 10 minutes, read-out: CL, mean (SD)): 35.4 mL/min/kg | half-life ([1]; 3 ug/kg, 3 μg/kg iv over 10 minutes, read-out: T1/2, mean (SD)): 12.8 min | Vd [1, 6]: 0.65 L/kg | Tmax [1, 7]: 10 min | AUC(0-inf) [1, 7]: 2.03 ng·h/mL | AUC(0-t) [1, 7]: 1.93 ng·h/mL | clearance ([1]; 4 ug/kg, 4 μg/kg iv over 10 minutes, read-out: CL, mean (SD)): 39.8 mL/min/kg | half-life ([1]; 4 ug/kg, 4 μg/kg iv over 10 minutes, read-out: T1/2, mean (SD)): 13 min | Vd [1, 7]: 0.69 L/kg | Tmax [1, 8]: 9 min | AUC(0-inf) [1, 8]: 2.32 ng·h/mL | AUC(0-t) [1, 8]: 2.22 ng·h/mL | clearance ([1]; 6 ug/kg, 6 μg/kg iv over 10 minutes, read-out: CL, mean (SD)): 33.9 mL/min/kg | half-life ([1]; 6 ug/kg, 6 μg/kg iv over 10 minutes, read-out: T1/2, mean (SD)): 14.9 min | Vd [1, 8]: 0.7 L/kg | Tmax [1, 9]: 10.5 min | AUC(0-inf) [1, 9]: 2.72 ng·h/mL | AUC(0-t) [1, 9]: 2.6 ng·h/mL | clearance ([1]; 8 ug/kg, 8 μg/kg iv over 10 minutes, read-out: CL, mean (SD)): 39.5 mL/min/kg | half-life ([1]; 8 ug/kg, 8 μg/kg iv over 10 minutes, read-out: T1/2, mean (SD)): 12.3 min | Vd [1, 9]: 0.68 L/kg | clearance ([1]; intravenous, across all dose levels, read-out: mean systemic clearance): 34.4 ± 7.5 mL/min/kg | half-life ([1]; intravenous, across all doses, read-out: terminal half-life, harmonic mean): 10 ± 4 min | relationship between clearance (CL) and body weight (BW) ([1]; linear mixed-effect model, p=0.004): CL=−0.19+0.039 BW | AUC0-t as share of total AUC0-∞ ([1]; trapezoidal rule): greater than 80% | inhibition of cytochrome P450 enzymes (cytochrome P450 enzymes): no significant inhibition | EC50 (Adenosine Receptor A2B): 44.7 µM
